Among the test systems are SF-268 CNS; HCC-2998 colon; SW-620 colon; U251 CNS; OVCAR-8 ovarian; HL-60(TB) leukemia; MCF7 breast; PC-3 prostate; NCI-H522 lung; NCI-H460 lung.
What all share (experiment): DTP human tumour cell line panel, 48 h

The structures appear in SMILES notation.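 How tested: cells in 96-well plates exposed to compound for 48 hours at five concentrations. GI50 = concentration required for 50% inhibition of growth. TGI: total growth inhibition.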 Some results are limits rather than exact numbers.

For orientation: TGI means the concentration at which net growth stops. For orientation: GI50 means the concentration at which growth is held to half of that of the control.

On to `CCOC(=O)c1ccc(NC(=O)Oc2ccc3c(C)cc(=O)oc3c2)cc1`, for which the TGI was more than 100 µM in the assay on SF-268 CNS; 51.1 µM in the assay with HCC-2998 colon; more than 100 µM in the assay with SW-620 colon; more than 100 µM in the assay with U251 CNS; more than 100 µM with OVCAR-8 ovarian; 62.2 µM in the assay with HL-60(TB) leukemia. Further, the TGI with MCF7 breast was 88 µM; with PC-3 prostate, more than 100 µM; with NCI-H522 lung, 66.7 µM; with NCI-H460 lung it was more than 100 µM.

On to `COc1ccc(Sc2[nH]c(C(C)=O)c3ccccc23)cc1`, for which the GI50 in the assay on SF-268 CNS was 12.9 µM; with HCC-2998 colon, 11.9 µM; in the assay on SW-620 colon, 12500 nM; in the assay with U251 CNS, 11900 nM; with OVCAR-8 ovarian, 16.4 µM; in the assay with HL-60(TB) leukemia, 15000 nM. Further, the GI50 in the assay on MCF7 breast was 12200 nM; in the assay with PC-3 prostate, 11100 nM; in the assay with NCI-H522 lung, 10200 nM; in the assay on NCI-H460 lung, 7410 nM. For the same molecule, the TGI in the assay with SF-268 CNS is 27.1 µM; in the assay on HCC-2998 colon, 24.4 µM; in the assay with SW-620 colon, 26.8 µM; with U251 CNS it was 25.1 µM; in the assay with OVCAR-8 ovarian, 36.8 µM; with HL-60(TB) leukemia, 33.4 µM. Besides, the TGI came to 24.6 µM in the assay on MCF7 breast, 28.4 µM in the assay on PC-3 prostate, 36.1 µM with NCI-H522 lung and 20.6 µM in the assay on NCI-H460 lung.

Turning to `Cn1c(I)c(C#CCO[Si](C)(C)C(C)(C)C)c(=O)[nH]c1=O`, the GI50 in the assay with SF-268 CNS is 15.9 µM; in the assay with HCC-2998 colon, 18.6 µM; in the assay with SW-620 colon, 1960 nM; with U251 CNS, 17400 nM; with OVCAR-8 ovarian it was 22.4 µM; with HL-60(TB) leukemia, 2430 nM. Further, the GI50 in the assay on MCF7 breast is 15000 nM; in the assay on PC-3 prostate, 17000 nM; in the assay on NCI-H522 lung it was 1800 nM; in the assay with NCI-H460 lung, 53800 nM. Besides, the TGI is 30.2 µM in the assay on SF-268 CNS; 34.7 µM in the assay on HCC-2998 colon; 4.14 µM with SW-620 colon; 31.9 µM in the assay on U251 CNS; 51.7 µM in the assay on OVCAR-8 ovarian; 4.83 µM in the assay on HL-60(TB) leukemia. Also, the total growth inhibition concentration (TGI) in the assay with MCF7 breast was 33.2 µM; with PC-3 prostate, 32.7 µM; in the assay on NCI-H522 lung, 3.95 µM; in the assay on NCI-H460 lung, more than 100 µM.

Turning to `CC(=O)Nc1ccc(S(=O)(=O)N2C(=O)CCC2C(=O)Nc2ccc(Br)cc2)cc1` (centres undefined), the GI50 in the assay on SF-268 CNS was 2.76 µM; in the assay with HCC-2998 colon, 3.67 µM; with SW-620 colon, 3190 nM; with U251 CNS it was 1890 nM; in the assay with OVCAR-8 ovarian, 2.6 µM; in the assay with HL-60(TB) leukemia it was 3100 nM. Moreover, the GI50 in the assay with MCF7 breast was 1480 nM; in the assay with PC-3 prostate, 984 nM; in the assay on NCI-H522 lung, 1060 nM; in the assay on NCI-H460 lung, 2630 nM. Besides, the TGI in the assay with SF-268 CNS is 21.9 µM; with HCC-2998 colon, 22.1 µM; in the assay with SW-620 colon, 27.6 µM; with U251 CNS, 11.3 µM; in the assay with OVCAR-8 ovarian, 11.9 µM; in the assay on HL-60(TB) leukemia it was 19 µM. For the same molecule, the TGI is 11 µM with MCF7 breast, 12.1 µM in the assay on PC-3 prostate, 3.6 µM in the assay on NCI-H522 lung and 24.5 µM with NCI-H460 lung.

As to `COc1cccc(F)c1C(=O)c1cnc(NC2CCN(S(C)(=O)=O)CC2)nc1N`, the GI50 was 5.96 µM with SF-268 CNS; 4.75 µM in the assay with HCC-2998 colon; 781 nM in the assay with SW-620 colon; 2600 nM in the assay with U251 CNS; 4.08 µM in the assay on OVCAR-8 ovarian; 1440 nM in the assay on HL-60(TB) leukemia. In addition, the concentration for 50% growth inhibition (GI50) with MCF7 breast was 326 nM; with PC-3 prostate it was 984 nM; in the assay on NCI-H522 lung, 7870 nM; in the assay with NCI-H460 lung, 862 nM. The TGI in the assay on SF-268 CNS is more than 21.4 µM; with HCC-2998 colon, more than 25 µM; with SW-620 colon it was more than 18.1 µM; in the assay with U251 CNS it was more than 25 µM; in the assay with OVCAR-8 ovarian, more than 25 µM; in the assay with HL-60(TB) leukemia, 13.3 µM. Also, the TGI in the assay with MCF7 breast was more than 25 µM; in the assay with PC-3 prostate, 12.3 µM; with NCI-H522 lung it was more than 23.7 µM; with NCI-H460 lung it was more than 25 µM.

As to `CC1(C)N=C(N)N=C(N)N1c1ccc(CCCCc2ccc(Cl)cc2S(=O)(=O)F)c(Cl)c1`, the GI50 in the assay with SF-268 CNS was 0.493 µM; with HCC-2998 colon, 1.15 µM; in the assay on SW-620 colon, 234 nM; in the assay with U251 CNS, 291 nM; with OVCAR-8 ovarian, 0.499 µM; in the assay with HL-60(TB) leukemia, 107 nM. The 50% growth inhibitory concentration (GI50) in the assay on MCF7 breast is 327 nM; in the assay on PC-3 prostate it was 323 nM; in the assay with NCI-H522 lung it was 530 nM; in the assay with NCI-H460 lung, 117 nM. The TGI with SF-268 CNS worked out at 17.7 µM; in the assay on HCC-2998 colon it was 21.2 µM; in the assay on SW-620 colon, 14.1 µM; in the assay on U251 CNS it was 15.4 µM; in the assay on OVCAR-8 ovarian it was 16.8 µM; in the assay with HL-60(TB) leukemia it was 3.26 µM. In addition, the TGI came to 9.49 µM in the assay on MCF7 breast, 16.7 µM in the assay with PC-3 prostate, 13.4 µM in the assay on NCI-H522 lung and 13.5 µM in the assay on NCI-H460 lung.

Consider `COc1ccccc1/C=N\N/C(N)=N\N=C\c1ccccc1OC`, for which the GI50 is 0.432 µM with SF-268 CNS; 1.03 µM in the assay on HCC-2998 colon; 376 nM in the assay with SW-620 colon; 1020 nM in the assay on U251 CNS; 0.301 µM in the assay with OVCAR-8 ovarian; 215 nM with HL-60(TB) leukemia. The GI50 in the assay on MCF7 breast is 254 nM; with PC-3 prostate it was 476 nM; in the assay with NCI-H522 lung, 956 nM; in the assay with NCI-H460 lung, 348 nM. The TGI was 26.9 µM with SF-268 CNS; 11.3 µM with HCC-2998 colon; 18.9 µM in the assay on SW-620 colon; more than 39.9 µM in the assay with U251 CNS; 17.5 µM with OVCAR-8 ovarian; 0.558 µM with HL-60(TB) leukemia. In addition, the TGI is 4.36 µM with MCF7 breast, more than 66.2 µM in the assay with PC-3 prostate and 4.37 µM in the assay on NCI-H460 lung.

With `COc1cc(C(=O)N2CCN(C=O)C2=S)cc(OC)c1OC`, the GI50 is 21.4 µM in the assay on SF-268 CNS; 19.8 µM with HCC-2998 colon; 26800 nM in the assay on SW-620 colon; 16400 nM in the assay with U251 CNS; 24 µM in the assay on OVCAR-8 ovarian; 23400 nM with HL-60(TB) leukemia. Moreover, the GI50 was 5490 nM in the assay with MCF7 breast, 22200 nM with PC-3 prostate, 5800 nM in the assay on NCI-H522 lung and 34000 nM in the assay on NCI-H460 lung. For the same molecule, the TGI with SF-268 CNS turned out to be 43.7 µM; in the assay with HCC-2998 colon, 38.7 µM; in the assay with SW-620 colon, 70 µM; in the assay with U251 CNS, 37.8 µM; with OVCAR-8 ovarian, 65.2 µM; in the assay with HL-60(TB) leukemia it was 44.3 µM. In addition, the TGI in the assay on MCF7 breast is 24.6 µM; with PC-3 prostate, 58.2 µM; with NCI-H522 lung it was 20.8 µM; in the assay with NCI-H460 lung, more than 100 µM.
